Measurements taken from patent publication US8895733B2 (Novartis AG, priority 2010, dated 2014).

Biological target: T1, Nav 1.7 (Homo sapiens, UniProt Q15858)
T1 construct: expressed in transfected cells
Assay: Whole-cell voltage clamp electrophysiology, automated patch clamp (marker c in Table of Examples)
Type: cell-based
Conditions: marker c = Automated patch clamp data; read-out: Nav 1.7 activity
In short: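 A voltage protocol weighted toward inactivated-state block was used to test compounds on stably expressing cells, with pulses from −65 mV holding to −10 mV test and −100 mV. Currents came from whole-cell automated patch-clamp recordings, either IonWorks Quattro or other automated instruments, usually in perforated-patch mode.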

T1 sequence (Q15858 whole entry): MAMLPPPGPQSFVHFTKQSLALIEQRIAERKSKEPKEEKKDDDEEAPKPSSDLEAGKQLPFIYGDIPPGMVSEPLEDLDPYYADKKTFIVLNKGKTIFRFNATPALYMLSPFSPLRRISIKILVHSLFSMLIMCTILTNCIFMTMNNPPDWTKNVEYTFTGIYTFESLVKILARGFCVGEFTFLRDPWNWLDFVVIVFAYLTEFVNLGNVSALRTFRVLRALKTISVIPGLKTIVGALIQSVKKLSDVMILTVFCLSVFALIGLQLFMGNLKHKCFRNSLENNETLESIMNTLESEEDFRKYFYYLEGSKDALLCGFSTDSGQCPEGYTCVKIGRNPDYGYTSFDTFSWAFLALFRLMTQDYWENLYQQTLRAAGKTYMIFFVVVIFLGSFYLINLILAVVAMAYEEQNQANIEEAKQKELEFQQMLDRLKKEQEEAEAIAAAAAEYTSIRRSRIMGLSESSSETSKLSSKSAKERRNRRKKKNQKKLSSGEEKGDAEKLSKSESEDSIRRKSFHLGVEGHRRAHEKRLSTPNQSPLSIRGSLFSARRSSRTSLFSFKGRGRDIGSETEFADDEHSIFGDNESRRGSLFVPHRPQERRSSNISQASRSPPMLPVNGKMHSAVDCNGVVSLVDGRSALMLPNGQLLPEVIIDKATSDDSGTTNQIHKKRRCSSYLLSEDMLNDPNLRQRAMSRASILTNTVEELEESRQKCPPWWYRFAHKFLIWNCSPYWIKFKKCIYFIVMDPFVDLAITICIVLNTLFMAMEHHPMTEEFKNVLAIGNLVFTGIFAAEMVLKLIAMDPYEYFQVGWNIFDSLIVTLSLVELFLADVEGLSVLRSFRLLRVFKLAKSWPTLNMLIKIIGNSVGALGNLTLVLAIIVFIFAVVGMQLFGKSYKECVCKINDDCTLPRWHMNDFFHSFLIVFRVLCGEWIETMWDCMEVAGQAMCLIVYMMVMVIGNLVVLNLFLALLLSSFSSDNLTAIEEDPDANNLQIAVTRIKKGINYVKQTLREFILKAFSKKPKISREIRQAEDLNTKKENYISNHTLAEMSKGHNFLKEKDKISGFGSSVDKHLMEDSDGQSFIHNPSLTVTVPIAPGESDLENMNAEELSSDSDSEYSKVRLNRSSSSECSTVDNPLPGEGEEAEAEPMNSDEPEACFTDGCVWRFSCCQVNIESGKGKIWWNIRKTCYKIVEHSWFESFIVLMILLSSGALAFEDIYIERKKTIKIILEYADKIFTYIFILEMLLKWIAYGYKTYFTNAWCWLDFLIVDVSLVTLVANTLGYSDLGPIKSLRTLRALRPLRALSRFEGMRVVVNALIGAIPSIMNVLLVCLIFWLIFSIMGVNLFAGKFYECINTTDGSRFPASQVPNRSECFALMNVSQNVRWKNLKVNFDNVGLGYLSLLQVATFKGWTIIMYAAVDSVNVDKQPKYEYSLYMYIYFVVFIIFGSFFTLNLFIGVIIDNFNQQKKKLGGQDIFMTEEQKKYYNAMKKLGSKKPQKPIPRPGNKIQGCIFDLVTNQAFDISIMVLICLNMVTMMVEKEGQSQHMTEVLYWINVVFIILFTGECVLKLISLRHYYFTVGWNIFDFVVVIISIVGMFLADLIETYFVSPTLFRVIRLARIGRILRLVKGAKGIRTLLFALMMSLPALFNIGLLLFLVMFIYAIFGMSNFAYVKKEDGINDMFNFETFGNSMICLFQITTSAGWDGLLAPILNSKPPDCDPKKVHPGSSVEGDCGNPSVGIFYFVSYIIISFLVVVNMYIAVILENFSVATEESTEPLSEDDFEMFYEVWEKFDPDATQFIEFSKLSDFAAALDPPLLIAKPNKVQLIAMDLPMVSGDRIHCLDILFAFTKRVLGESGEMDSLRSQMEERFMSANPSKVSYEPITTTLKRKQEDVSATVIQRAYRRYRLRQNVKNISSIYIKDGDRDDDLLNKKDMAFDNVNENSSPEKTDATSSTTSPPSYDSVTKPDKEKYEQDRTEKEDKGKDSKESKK

SMILES | IC50
CN(c1ccccc1)c1nc(N)nc(-c2noc([C@H]3CCCN3CCC(F)(F)F)n2)n1 [Example 442, 2-N-methyl-2-N-phenyl-6-{5-[(2R)-1-(3,3,3-trifluoropropyl)pyrrolidin-2-yl]-1,2,4-oxadiazol-3-yl}-1,3,5-triazine-2,4-diamine] | 7.18 µM
CN(c1ccccc1)c1nc(N)nc(-c2noc(N3CC[C@@H](OCC(F)(F)F)C3)n2)n1 [Example 443, 2-N-methyl-2-N-phenyl-6-{5-[(3R)-3-(2,2,2-trifluoroethoxy)pyrrolidin-1-yl]-1,2,4-oxadiazol-3-yl}-1,3,5-triazine-2,4-diamine] | 7.29 µM
COC[C@H]1CCCN1c1nc(-c2nc(N)nc(N(C)c3ccccc3)n2)no1 [Example 444, 6-{5-[(2R)-2-(methoxymethyl)pyrrolidin-1-yl]-1,2,4-oxadiazol-3-yl}-2-N-methyl-2-N-phenyl-1,3,5-triazine-2,4-diamine] | 8 µM
CN(c1ccccc1)c1nc(N)nc(-c2noc(N3CC[C@H](OCC(F)(F)F)C3)n2)n1 [Example 445, 2-N-methyl-2-N-phenyl-6-{5-[(3S)-3-(2,2,2-trifluoroethoxy)pyrrolidin-1-yl]-1,2,4-oxadiazol-3-yl}-1,3,5-triazine-2,4-diamine] | 3.3 µM
COC[C@@H]1CCCN1c1nc(-c2nc(N)nc(N(C)c3ccccc3)n2)no1 [Example 446, 6-{5-[(2S)-2-(methoxymethyl)pyrrolidin-1-yl]-1,2,4-oxadiazol-3-yl}-2-N-methyl-2-N-phenyl-1,3,5-triazine-2,4-diamine] | 3.62 µM
CC(C)CS(=O)(=O)N1CCC[C@@H]1c1nc(-c2nc(N)nc(N(C)c3ccccc3)n2)no1 [Example 447, 2-N-methyl-6-{5-[(2R)-1-[(2-methylpropane)sulfonyl]pyrrolidin-2-yl]-1,2,4-oxadiazol-3-yl}-2-N-phenyl-1,3,5-triazine-2,4-diamine] | 1.09 µM
CN(c1ccccc1)c1nc(N)nc(-c2noc([C@H]3CCCN3S(=O)(=O)CC(F)(F)F)n2)n1 [Example 448, 2-N-methyl-2-N-phenyl-6-{5-[(2R)-1-[(2,2,2-trifluoroethane)sulfonyl]pyrrolidin-2-yl]-1,2,4-oxadiazol-3-yl}-1,3,5-triazine-2,4-diamine] | 0.287 µM
CN(c1ccccc1)c1nc(N)nc(-c2noc([C@H]3CCCN3C(=O)CC3CC3)n2)n1 [Example 449, 1-[(2R)-2-(3-{4-amino-6-[methyl(phenyl)amino]-1,3,5-triazin-2-yl}-1,2,4-oxadiazol-5-yl)pyrrolidin-1-yl]-2-cyclopropylethan-1-one] | 2.57 µM
CN(c1ccccc1)c1nc(N)nc(-c2noc([C@@H]3CCCN3C(=O)CC3CC3)n2)n1 [Example 450, 1-[(2S)-2-(3-{4-amino-6-[methyl(phenyl)amino]-1,3,5-triazin-2-yl}-1,2,4-oxadiazol-5-yl)pyrrolidin-1-yl]-2-cyclopropylethan-1-one] | 9.53 µM
CN(c1ccccc1)c1nc(N)nc(-c2noc([C@@H]3CCCN3C(=O)CC(F)(F)F)n2)n1 [Example 451, 1-[(2S)-2-(3-{4-amino-6-[methyl(phenyl)amino]-1,3,5-triazin-2-yl}-1,2,4-oxadiazol-5-yl)pyrrolidin-1-yl]-3,3,3-trifluoropropan-1-one] | 7.95 µM
CN(c1ccccc1)c1nc(N)nc(-c2noc(-c3ccc(SCC4CC4)nc3)n2)n1 [Example 452, 6-(5-{6-[(cyclopropylmethyl)sulfanyl]pyridin-3-yl}-1,2,4-oxadiazol-3-yl)-2-N-methyl-2-N-phenyl-1,3,5-triazine-2,4-diamine] | 0.061 µM
CN(c1ccccc1)c1nc(N)nc(-c2noc(-c3ccc(SCCC(F)(F)F)nc3)n2)n1 [Example 453, 2-N-methyl-2-N-phenyl-6-{5-{6-[(3,3,3-trifluoropropyl)sulfanyl]pyridin-3-yl}-1,2,4-oxadiazol-3-yl)-1,3,5-triazine-2,4-diamine] | 0.121 µM
CN(c1ccccc1)c1nc(N)nc(-c2noc(-c3ccc(S(=O)(=O)CCC(F)(F)F)nc3)n2)n1 [Example 454, 2-N-methyl-2-N-phenyl-6-(5-{6-[(3,3,3-trifluoropropane)sulfonyl]pyridin-3-yl}-1,2,4-oxadiazol-3-yl)-1,3,5-triazine-2,4-diamine] | 0.29 µM
CN(c1ccccc1)c1nc(N)nc(-c2noc(-c3ccc([S+]([O-])CCC(F)(F)F)nc3)n2)n1 (centres unmarked) [Example 455, 2-N-methyl-2-N-phenyl-6-(5-{6-[(3,3,3-trifluoropropane)sulfinyl]pyridin-3-yl}-1,2,4-oxadiazol-3-yl)-1,3,5-triazine-2,4-diamine] | 0.057 µM
CN(c1ccccc1)c1nc(N)nc(-c2noc(-c3ccc([S+]([O-])CC4CC4)nc3)n2)n1 (centres unmarked) [Example 456, 6-{5-[6-(cyclopropylmethane)sulfinylpyridin-3-yl]-1,2,4-oxadiazol-3-yl}-2-N-methyl-2-N-phenyl-1,3,5-triazine-2,4-diamine] | 0.31 µM
Nc1nc(Nc2ccccc2)nc(-c2noc(C(=O)N3CCC(OCC(F)(F)F)CC3)n2)n1 [Example 457, 2-N-phenyl-6-(5-{[4-(2,2,2-trifluoroethoxy)piperidin-1-yl]carbonyl}-1,2,4-oxadiazol-3-yl)-1,3,5-triazine-2,4-diamine] | 1.3 µM

SMILES | IC50
CCOC1CCN(C(=O)c2nc(-c3nc(N)nc(N(C)c4ccccc4)n3)no2)CC1 [Example 458, 6-{5-[(4-ethoxypiperidin-1-yl)carbonyl]-1,2,4-oxadiazol-3-yl}-2-N-methyl-2-N-phenyl-1,3,5-triazine-2,4-diamine] | 4.72 µM
CN(c1ccccc1)c1nc(N)nc(-c2noc(C(=O)N3CCC(COCC4CC4)CC3)n2)n1 [Example 459, 6-[5-({4-[(cyclopropylmethoxy)methyl]piperidin-1-yl}carbonyl)-1,2,4-oxadiazol-3-yl]-2-N-methyl-2-N-phenyl-1,3,5-triazine-2,4-diamine] | 3.25 µM
CN(c1ccccc1)c1nc(N)nc(-c2noc(C(=O)N3CCC(COCC(F)(F)F)CC3)n2)n1 [Example 460, 2-N-methyl-2-N-phenyl-6-[5-({4-[(2,2,2-trifluoroethoxy)methyl]piperidin-1-yl]carbonyl)-1,2,4-oxadiazol-3-yl]-1,3,5-triazine-2,4-diamine] | 3.03 µM
Nc1nc(Nc2ccccc2)nc(-c2noc(C(=O)N3CCC(COCC(F)(F)F)CC3)n2)n1 [Example 461, 2-N-phenyl-6-[5-({4-[(2,2,2-trifluoroethoxy)methyl]piperidin-1-yl}carbonyl)-1,2,4-oxadiazol-3-yl]-1,3,5-triazine-2,4-diamine] | 1.64 µM
Nc1nc(Nc2ccccc2)nc(-c2noc(C(=O)N3CCC(OCC4CC4)CC3)n2)n1 [Example 462, 6-(5-{[4-(cyclopropylmethoxy)piperidin-1-yl]carbonyl}-1,2,4-oxadiazol-3-yl)-2-N-phenyl-1,3,5-triazine-2,4-diamine] | 3.61 µM
Nc1nc(Nc2ccccc2)nc(-c2noc(C(=O)N3CCC(COCC4CC4)CC3)n2)n1 [Example 463, 6-[5-({4-[(cyclopropylmethoxy)methyl]piperidin-1-yl}carbonyl)-1,2,4-oxadiazol-3-yl]-2-N-phenyl-1,3,5-triazine-2,4-diamine] | 1.82 µM
CN(c1ccccc1)c1nc(N)nc(-c2noc(C(=O)N3CCC(COCCC(F)(F)F)CC3)n2)n1 [Example 464, 2-N-Methyl-2-N-phenyl-6-[5-({4-[(3,3,3-trifluoropropoxy)methyl]piperidin-1-yl}carbonyl)-1,2,4-oxadiazol-3-yl]-1,3,5-triazine-2,4-diamine] | 0.719 µM
CN(c1ccccc1)c1nc(N)nc(-c2noc(C(=O)N3CCC(SCC(F)(F)F)CC3)n2)n1 [Example 465, 2-N-methyl-2-N-phenyl-6-[5-({4-[(2,2,2-trifluoroethyl)sulfanyl]piperidin-1-yl}carbonyl)-1,2,4-oxadiazol-3-yl]-1,3,5-triazine-2,4-diamine] | 1.04 µM
Nc1nc(Nc2ccccc2)nc(-c2noc(C(=O)N3CCC(SCC(F)(F)F)CC3)n2)n1 [Example 466, 2-N-phenyl-6-[5-({4-[(2,2,2-trifluoroethyl)sulfanyl]piperidin-1-yl}carbonyl)-1,2,4-oxadiazol-3-yl]-1,3,5-triazine-2,4-diamine] | 0.741 µM
Cc1ncc(-c2nc(-c3nc(N)nc(N(C)c4ccccc4)n3)no2)cn1 [Example 467, 2-N-methyl-6-[5-(2-methylpyrimidin-5-yl)-1,2,4-oxadiazol-3-yl]-2-N-phenyl-1,3,5-triazine-2,4-diamine] | 9.93 µM
CN(c1ccccc1)c1nc(N)nc(-c2noc(-c3cnccn3)n2)n1 [Example 468, 2-N-methyl-2-N-phenyl-6-[5-(pyrazin-2-yl)-1,2,4-oxadiazol-3-yl]-1,3,5-triazine-2,4-diamine] | 8.91 µM
CN(c1ccccc1)c1nc(N)nc(-c2noc(-c3ccnnc3)n2)n1 [Example 469, 2-N-methyl-2-N-phenyl-6-[5-(pyridazin-4-yl)-1,2,4-oxadiazol-3-yl]-1,3,5-triazine-2,4-diamine] | 2.92 µM
CN(c1ccccc1)c1nc(N)nc(-c2noc(-c3ccc(NCC(F)(F)F)cn3)n2)n1 [Example 471, 2-N-methyl-2-N-phenyl-6-(5-{5-[(2,2,2-trifluoroethyl)amino]pyridin-2-yl}-1,2,4-oxadiazol-3-yl)-1,3,5-triazine-2,4-diamine] | 0.731 µM
CN(c1ccccc1)c1nc(N)nc(-c2noc(-c3ccc(N4CCCCC4)nc3)n2)n1 [Example 473, 2-N-methyl-2-N-phenyl-6-{5-[6-(piperidin-1-yl)pyridin-3-yl]-1,2,4-oxadiazol-3-yl}-1,3,5-triazine-2,4-diamine] | 0.31 µM
CN(c1ccc(F)cc1)c1nc(N)nc(-c2noc(-c3ncccc3F)n2)n1 [Example 474, 2-N-(4-fluorophenyl)-6-[5-(3-fluoropyridin-2-yl)-1,2,4-oxadiazol-3-yl]-2-N-methyl-1,3,5-triazine-2,4-diamine] | 0.289 µM
CN(c1nc(N)nc(-c2noc(-c3ncccc3F)n2)n1)c1ccccc1F [Example 475, 2-N-(2-fluorophenyl)-6-[5-(3-fluoropyridin-2-yl)-1,2,4-oxadiazol-3-yl]-2-N-methyl-1,3,5-triazine-2,4-diamine] | 0.069 µM
